The results in this text go back to US20230024302A1, “2,3,5-TRISUBSTITUTED PYRAZOLO[1,5-A]PYRIMIDINE COMPOUNDS” (Arcus Biosciences, Inc., priority 2019, published 2023).

pIC50: −log10 of the molar value. Like-named read-outs stand apart in the source and are kept apart here.

Experiment [1] concerns the target T1, PI3Kγ (Homo sapiens, UniProt P48736).
T1 construct: host or cells: THP-1
Put plainly: PI3Kγ cellular assay in THP-1 cells (AKT pS473 AlphaLISA). The class given is cell-based. In outline:
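Serum-starved THP-1 cells (1.8×10^5/well, serum-free DMEM) treated with compounds from 4 nM to 30 μM in 2% DMSO, then stimulated and lysed.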
In general terms: Bead proximity is the source of the signal in Alpha formats.

In experiment [2] the target is T2, PI3Kγ (p120γ) (Homo sapiens, UniProt P48736).
T2 construct: purchased Promega V1761
Put plainly: Inhibition of PI3K kinase activity (ADP Glo), PI3Kγ. The note with it: read-out: biochemical potency (PI3Kγ IC50). In outline:
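Recombinant p120γ (8 nM, 2× stock) was preincubated with compound for 1 h at rt in HEPES pH 7.4, NaCl, MgCl2 and 0.05% BSA. Reaction was started with PIP2 (0.1 mg/ml, 2×) and ATP (50 μM, 2×) and ran 60 min at rt. ADP formed was read by ADP-Glo luminescence, and IC50 came from a 4-parameter fit.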

Where [3] appears, read: Table 2, rhMCP-1 stimulated AKT pS473, read-out: cellular potency (PI3Kγ IC50).
The mark [4] stands for this setting: Table 1, rhMCP-1 stimulated AKT pS473, read-out: cellular potency (PI3Kγ IC50).
Where [5] appears, read: Table 6, rhMCP-1 stimulated AKT pS473, read-out: cellular potency (PI3Kγ IC50).

By pIC50 is commonly meant −log10 of the IC50, conventionally taken in molar units.

T1 sequence (P48736 whole entry): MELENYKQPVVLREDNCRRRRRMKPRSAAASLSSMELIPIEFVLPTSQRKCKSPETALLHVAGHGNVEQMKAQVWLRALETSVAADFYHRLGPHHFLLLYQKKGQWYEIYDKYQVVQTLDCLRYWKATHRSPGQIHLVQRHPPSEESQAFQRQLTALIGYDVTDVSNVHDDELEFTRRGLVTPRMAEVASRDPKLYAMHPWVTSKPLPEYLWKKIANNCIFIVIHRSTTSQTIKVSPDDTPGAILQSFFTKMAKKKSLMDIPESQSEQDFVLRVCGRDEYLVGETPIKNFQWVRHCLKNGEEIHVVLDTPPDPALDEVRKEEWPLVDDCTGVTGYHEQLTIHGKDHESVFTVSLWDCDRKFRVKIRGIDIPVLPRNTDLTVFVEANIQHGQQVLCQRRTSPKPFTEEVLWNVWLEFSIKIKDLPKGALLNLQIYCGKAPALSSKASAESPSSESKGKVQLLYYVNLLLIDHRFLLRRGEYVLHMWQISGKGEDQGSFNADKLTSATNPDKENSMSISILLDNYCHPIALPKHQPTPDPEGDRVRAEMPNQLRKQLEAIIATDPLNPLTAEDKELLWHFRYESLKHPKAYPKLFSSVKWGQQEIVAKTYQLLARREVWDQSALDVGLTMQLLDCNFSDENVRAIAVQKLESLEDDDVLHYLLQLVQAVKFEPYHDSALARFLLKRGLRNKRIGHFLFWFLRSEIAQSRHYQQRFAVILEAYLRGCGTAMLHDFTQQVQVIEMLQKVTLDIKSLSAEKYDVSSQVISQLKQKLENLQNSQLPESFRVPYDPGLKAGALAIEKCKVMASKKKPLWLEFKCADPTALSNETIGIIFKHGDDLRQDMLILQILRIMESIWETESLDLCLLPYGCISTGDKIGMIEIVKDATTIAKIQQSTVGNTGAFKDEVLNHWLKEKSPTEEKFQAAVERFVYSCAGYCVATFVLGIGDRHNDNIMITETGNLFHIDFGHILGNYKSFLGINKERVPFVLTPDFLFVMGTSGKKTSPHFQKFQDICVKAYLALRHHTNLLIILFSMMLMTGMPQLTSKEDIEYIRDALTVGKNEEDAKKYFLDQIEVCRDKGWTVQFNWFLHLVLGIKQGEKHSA
T2 sequence (P48736 whole entry): as above

`Cc1cc(-c2ccn3nc(N)c(C(=O)N[C@@H](C)CO)c3n2)cc2c1C(=O)N([C@@H](C)C1CC1)C2` [Example 221]: the pIC50 is 6.00 to 7.00 in experiment [1] (setting [3]) and more than 7.00 in experiment [2] (Table 2, p120γ).

`Cc1cc(-c2ccn3nc(N)c(C(=O)N[C@H]4CNC(=O)C4)c3n2)cc2c1C(=O)N([C@@H](C)C1CC1)C2` [Example 10, 2-Amino-5-{2-[(1S)-1-cyclopropylethyl]-7-methyl-1-oxo-2,3-dihydro-1H-isoindol-5-yl}-N-[(3R)-5-oxopyrrolidin-3-yl]pyrazolo[1,5-a]pyrimidine-3-carboxamide]: the negative logarithm of the IC50 (pIC50) in experiment [1] (setting [4]) was more than 7.00; in experiment [2] (Table 1, p120γ), more than 7.00.

On to `Cc1cc(-c2ccn3nc(N)c(C(=O)Nc4cnn(C)c4)c3n2)cc2c1C(=O)N([C@@H](C)C1CC1)C2` [Example 18, 2-Amino-5-{2-[(1S)-1-cyclopropylethyl]-7-methyl-1-oxo-2,3-dihydro-1H-isoindol-5-yl}-N-(1-methyl-1H-pyrazol-4-yl)pyrazolo[1,5-a]pyrimidine-3-carboxamide], for which the pIC50 in experiment [1] (setting [4]) is more than 7.00; in experiment [2] (Table 1, p120γ), more than 7.00.

As for `C[C@H](N1Cc2cc(-c3ccn4nc(N)c(C(=O)N[C@H]5C[C@H](O)C5)c4n3)cc(NS(C)(=O)=O)c2C1=O)C(F)(F)F` [Example 121, 2-Amino-5-{7-methanesulfonamido-1-oxo-2-[(2S)-1,1,1-trifluoropropan-2-yl]-2,3-dihydro-1H-isoindol-5-yl}-N-[trans-3-hydroxycyclobutyl]pyrazolo[1,5-a]pyrimidine-3-carboxamide], the pIC50 in experiment [1] (setting [4]) was more than 7.00; in experiment [2] (Table 1, p120γ) it was more than 7.00.

As for `Cc1cc(-c2ccn3nc(N)c(C(=O)NCCC#N)c3n2)cc2c1C(=O)N([C@@H](C)C1CC1)C2` [Example 260], the pIC50 in experiment [1] (setting [3]) was 6.00 to 7.00; in experiment [2] (Table 2, p120γ), more than 7.00.

Take `Cc1cc(-c2ccn3nc(N)c(C(=O)N[C@@H](C)C4CCOCC4)c3n2)cc2c1C(=O)N([C@@H](C)C1CC1)C2` [Example 200]: the negative logarithm of the IC50 (pIC50) in experiment [1] (setting [3]) is 6.00 to 7.00; in experiment [2] (Table 2, p120γ), more than 7.00.

Regarding `CCN1Cc2cc(-c3ccn4nc(N)c(C(=O)NC5CC5)c4n3)cc(C)c2C1=O` [Example 305], the negative-log IC50 (pIC50) in experiment [1] (setting [3]) is 6.00 to 7.00; in experiment [2] (Table 2, p120γ), more than 7.00.

For `C[C@@H](C1CC1)N1Cc2cc(-c3ccn4nc(N)c(C(=O)NCCC(C)(C)O)c4n3)cc(C(F)(F)F)c2C1=O` [Example 59, 2-[(S)-1-Cyclopropylethyl]-5-{2-amino-3-[(3-hydroxy-3-methylbutylamino)carbonyl]-1,4,7a-triaza-5-indenyl}-7-(trifluoromethyl)-1-isoindolinone], the negative logarithm of the IC50 (pIC50) is more than 7.00 in experiment [1] (setting [4]) and more than 7.00 in experiment [2] (Table 1, p120γ).

For the compound `C[C@@H](C1CC1)N1Cc2cc(-c3ccn4nc(N)c(C(=O)NC5CC5)c4n3)cc(N3CC(O)C3)c2C1=O` [Example 433], the pIC50 in experiment [1] (setting [5]) was 6.00 to 7.00; in experiment [2] (Table 6, p120γ), more than 7.00.

For `Cc1cc(-c2ccn3nc(N)c(C(=O)N[C@@H](CO)C4CC4)c3n2)cc2c1C(=O)N([C@@H](C)C1CC1)C2` [Example 195], the pIC50 is 6.00 to 7.00 in experiment [1] (setting [3]) and more than 7.00 in experiment [2] (Table 2, p120γ).

Regarding `C[C@@H](C1CC1)N1Cc2cc(-c3ccn4nc(N)c(C(=O)Nc5cncc(F)c5)c4n3)cc(OC(F)(F)F)c2C1=O` [Example 42, 2-Amino-5-{2-[(1S)-1-cyclopropylethyl]-1-oxo-7-(trifluoromethoxy)-2,3-dihydro-1H-isoindol-5-yl}-N-(5-fluoropyridin-3-yl)pyrazolo[1,5-a]pyrimidine-3-carboxamide], the negative logarithm of the IC50 (pIC50) was more than 7.00 in experiment [1] (setting [4]) and more than 7.00 in experiment [2] (Table 1, p120γ).

Consider `Cc1cc(-c2ccn3nc(N)c(C(=O)NC4CC4)c3n2)cc2c1C(=O)N(C(C)C)C2` [Example 304], for which the pIC50 in experiment [1] (setting [3]) is 6.00 to 7.00; in experiment [2] (Table 2, p120γ), more than 7.00.

Regarding `C[C@@H](C1CC1)N1Cc2cc(-c3ccn4nc(N)c(C(=O)NC5(CO)CC5)c4n3)cc(C(F)(F)F)c2C1=O` [Example 342], the pIC50 is 6.00 to 7.00 in experiment [1] (Table 3, rhMCP-1 stimulated AKT pS473, read-out: cellular potency (PI3Kγ IC50)) and more than 7.00 in experiment [2] (Table 3, p120γ).

On to `Cc1cc(-c2ccn3nc(N)c(C(=O)NC4CC4)c3n2)cc2c1C(=O)N([C@H](CO)C1CC1)C2` [Example 310], for which the negative logarithm of the IC50 (pIC50) in experiment [1] (setting [3]) was 6.00 to 7.00; in experiment [2] (Table 2, p120γ), more than 7.00.

Turning to `Nc1nn2ccc(-c3cc4c(c(OC(F)(F)F)c3)C(=O)N([C@@H](CO)C3CC3)C4)nc2c1C(=O)NC1CC1` [Example 416], the negative-log IC50 (pIC50) is 6.00 to 7.00 in experiment [1] (setting [5]) and more than 7.00 in experiment [2] (Table 6, p120γ).

With `C[C@@H](C1CC1)N1Cc2cc(-c3ccn4nc(N)c(C(=O)NC5CC5)c4n3)cc(O[C@@H]3CCOC3)c2C1=O` [Example 148, 2-Amino-N-cyclopropyl-5-{2-[(1S)-1-cyclopropylethyl]-1-oxo-7-[(3R)-oxolan-3-yloxy]-2,3-dihydro-1H-isoindol-5-yl}pyrazolo[1,5-a]pyrimidine-3-carboxamide], the pIC50 in experiment [1] (setting [4]) was more than 7.00; in experiment [2] (Table 1, p120γ) it was more than 7.00.

As to `Cc1cc(-c2ccn3nc(N)c(C(=O)N[C@]4(C)C[C@@H](O)C4)c3n2)cc2c1C(=O)N([C@@H](C)C1CC1)C2` [Example 13, 2-Amino-5-{2-[(1S)-1-cyclopropylethyl]-7-methyl-1-oxo-2,3-dihydro-1H-isoindol-5-yl}-N-[trans-3-hydroxy-1-methylcyclobutyl]pyrazolo[1,5-a]pyrimidine-3-carboxamide], the pIC50 in experiment [1] (setting [4]) is more than 7.00; in experiment [2] (Table 1, p120γ) it was more than 7.00.

`C[C@@H](C1CC1)N1Cc2cc(-c3ccn4nc(N)c(C(=O)N[C@H]5CC[C@](O)(C(F)(F)F)CC5)c4n3)cc(N3CC[C@@H](O)C3)c2C1=O` [Example 153, 2-Amino-5-{2-[(1S)-1-cyclopropylethyl]-7-[(3R)-3-hydroxypyrrolidin-1-yl]-1-oxo-2,3-dihydro-1H-isoindol-5-yl}-N-[cis-4-hydroxy-4-(trifluoromethyl)cyclohexyl]pyrazolo[1,5-a]pyrimidine-3-carboxamide]: the negative logarithm of the IC50 (pIC50) was more than 7.00 in experiment [1] (setting [4]) and more than 7.00 in experiment [2] (Table 1, p120γ).

On to `CC[C@H](N1Cc2cc(-c3ccn4nc(N)c(C(=O)N[C@H]5C[C@H](C(C)(C)O)C5)c4n3)cc(NS(C)(=O)=O)c2C1=O)C(F)(F)F` [Example 126, 2-Amino-5-{7-methanesulfonamido-1-oxo-2-[(2S)-1,1,1-trifluorobutan-2-yl]-2,3-dihydro-1H-isoindol-5-yl}-N-[trans-3-(2-hydroxypropan-2-yl)cyclobutyl]pyrazolo[1,5-a]pyrimidine-3-carboxamide], for which the pIC50 in experiment [1] (setting [4]) is more than 7.00; in experiment [2] (Table 1, p120γ) it was more than 7.00.

As to `CC(=O)N1CC(NC(=O)c2c(N)nn3ccc(-c4cc(C)c5c(c4)CN([C@@H](C)C4CC4)C5=O)nc23)C1` [Example 194], the negative logarithm of the IC50 (pIC50) in experiment [1] (setting [3]) was 6.00 to 7.00; in experiment [2] (Table 2, p120γ), more than 7.00.

For `Cc1cc(-c2ccn3nc(N)c(C(=O)NC4CC4)c3n2)cc2c1C(=O)N([C@@H]1CCC[C@H](O)C1)C2` [Example 324], the pIC50 is 6.00 to 7.00 in experiment [1] (setting [3]) and more than 7.00 in experiment [2] (Table 2, p120γ).

`Cc1cc(-c2ccn3nc(N)c(C(=O)NC4CCOCC4)c3n2)cc2c1C(=O)N([C@@H](C)C1CC1)C2` [Example 181]: the negative logarithm of the IC50 (pIC50) is 6.00 to 7.00 in experiment [1] (setting [3]) and more than 7.00 in experiment [2] (Table 2, p120γ).

Consider `Cc1cc(-c2ccn3nc(N)c(C(=O)N[C@@H]4CCCC[C@H]4O)c3n2)cc2c1C(=O)N([C@@H](C)C1CC1)C2` [Example 229], for which the pIC50 in experiment [1] (setting [3]) is 6.00 to 7.00; in experiment [2] (Table 2, p120γ) it was more than 7.00.

With `Cc1cc(-c2ccn3nc(N)c(C(=O)N[C@H]4CC[C@@H](C(=O)O)CC4)c3n2)cc2c1C(=O)N([C@@H](C)C1CC1)C2` [Example 193], the pIC50 was 6.00 to 7.00 in experiment [1] (setting [3]) and more than 7.00 in experiment [2] (Table 2, p120γ).

For `Cc1nn(C)cc1NC(=O)c1c(N)nn2ccc(-c3cc4c(c(OC(F)F)c3)C(=O)N([C@@H](C)C3CC3)C4)nc12` [Example 429], the negative-log IC50 (pIC50) in experiment [1] (setting [5]) was more than 7.00; in experiment [2] (Table 6, p120γ), more than 7.00.

`Cc1cc(-c2ccn3nc(N)c(C(=O)NC4CCC4)c3n2)cc2c1C(=O)N([C@@H](C)C1CC1)C2` [Example 189]: the pIC50 was 6.00 to 7.00 in experiment [1] (setting [3]) and more than 7.00 in experiment [2] (Table 2, p120γ).

In the case of `Cc1c(NC(=O)c2c(N)nn3ccc(-c4cc5c(c(NS(C)(=O)=O)c4)C(=O)N([C@@H](C)C4CC4)C5)nc23)cnn1C` [Example 108, 2-Amino-5-{2-[(1S)-1-cyclopropylethyl]-7-methanesulfonamido-1-oxo-2,3-dihydro-1H-isoindol-5-yl}-N-(1,5-dimethyl-1H-pyrazol-4-yl)pyrazolo[1,5-a]pyrimidine-3-carboxamide], the pIC50 in experiment [1] (setting [4]) was more than 7.00; in experiment [2] (Table 1, p120γ) it was more than 7.00.

On to `CCc1cc(-c2ccn3nc(N)c(C(=O)NC4CC4)c3n2)cc2c1C(=O)N([C@@H](C)C1CC1)C2` [Example 450], for which the pIC50 in experiment [1] (setting [5]) was 6.00 to 7.00; in experiment [2] (Table 6, p120γ), more than 7.00.

As for `C[C@@H](C1CC1)N1Cc2cc(-c3ccn4nc(N)c(C(=O)N[C@@H](CO)C5CC5)c4n3)cc(C3CC3)c2C1=O` [Example 167, 2-Amino-5-{7-cyclopropyl-2-[(1S)-1-cyclopropylethyl]-1-oxo-2,3-dihydro-1H-isoindol-5-yl}-N-[(1R)-1-cyclopropyl-2-hydroxyethyl]pyrazolo[1,5-a]pyrimidine-3-carboxamide], the pIC50 in experiment [1] (setting [4]) is more than 7.00; in experiment [2] (Table 1, p120γ) it was more than 7.00.

On to `C[C@@H](C1CC1)N1Cc2cc(-c3ccn4nc(N)c(C(=O)N[C@H]5CCNC5=O)c4n3)cc(OC(F)(F)F)c2C1=O` [Example 32, 2-Amino-5-{2-[(1S)-1-cyclopropylethyl]-1-oxo-7-(trifluoromethoxy)-2,3-dihydro-1H-isoindol-5-yl}-N-[(3S)-2-oxopyrrolidin-3-yl]pyrazolo[1,5-a]pyrimidine-3-carboxamide], for which the pIC50 in experiment [1] (setting [4]) is more than 7.00; in experiment [2] (Table 1, p120γ), more than 7.00.
